Data reported in patent US20090036389A1, “Polymeric Micelle Formulations of Hydrophobic Compounds and Methods” (priority 2002, published 2009).

How the values were obtained:
[1] = Drug loading of PEG-b-PCL (5000:4000) micelles, cosolvent evaporation versus dialysis; format: physicochemical
[2] = tested on: bovine erythrocytes
Protocol: EDTA-anticoagulated bovine blood was diluted in PBS, pH=7.2. The erythrocytes were separated by centrifugation for 10 min at 3000 rpm. The supernatant was removed and discarded. The packed cell volume (PCV) was washed three more times with PBS. The PCV was diluted appropriately in PBS to obtain suspensions of 8×10^7 and 1.48×10^8 cells/mL. Cell counts were preformed using an Improved Neubauer Brightline hemacytometer (depth=0.1 mm) from Hausser Scientific (Horsham, Pa.). The AmB/polymer formulations and polymer blanks were brought to room temperature and reconstituted with 1.0 mL of PBS just prior to use. 1.85 mL of the 8×10^7 cells/mL suspension was incubated at 37° C. in a shaking water bath (75 rpm) with 150 μL of AmB/polymer formulation, polymer blank containing no AmB, or PBS buffer (control) for 24 h. […] The supernatant was collected, and hemoglobin content was determined by absorbance at 542 nm. […] Percent hemolysis is reported by 100(Abss-Absb)/(Abs1-Absb) where Abss is the absorbance of the sample, Absb is the average absorbance of the buffer, and Abss is the average absorbance of the lysed samples. […]
An 8 mg/mL AmB in DMSO stock solution was prepared. […] The samples were collected over time, and percent hemolysis was determined as described above.

| SMILES | % Yield of Drug ([1]; Cosolvent Evaporation) [%] | % Yield of Drug ([1]; Dialysis) [%] | Final Drug/Polymer Mole Ratio ([1]; Cosolvent Evaporation) | Final Drug/Polymer Mole Ratio ([1]; Dialysis) | time-dependent hemolytic profile / onset of hemolysis [2] |
| --- | --- | --- | --- | --- | --- |
| CC(C)OC(=O)C(C)(C)Oc1ccc(C(=O)c2ccc(Cl)cc2)cc1 [Fenofibrate, 2-[4-(4-chlorobenzoyl)phenoxy]-2-methylpropanoic acid 1-methylethyl ester] | 88 | 31 |  |  |  |
| C[C@@H]1[C@H](O)[C@@H](C)/C=C/C=C/C=C/C=C/C=C/C=C/C=C/[C@H](O[C@@H]2O[C@H](C)[C@@H](O)[C@H](N)[C@@H]2O)C[C@@H]2O[C@](O)(C[C@@H](O)C[C@@H](O)[C@H](O)CC[C@@H](O)C[C@@H](O)CC(=O)O[C@H]1C)C[C@H](O)[C@H]2C(=O)O [Free AmB, amphotericin B] | 48 | 25 | 0.11 | 0.055 | immediate hemolysis |
